Patent US10155810B2, “Provasopressin antagonists and uses thereof” (Woomera Therapeutics, Inc., priority 2011, dated 2018)

Tested on: recurrent H82 SCLC cells xenografts
Assay: H82 SCLC xenograft, combination with cyclophosphamide
Assay type: in vivo, nu/nu mice
Conditions: cyclophosphamide 50 mg/kg daily for 3 days, then 100 μg MAG-1 daily for 11 days, i.p.
Experimental: Three groups of nu/nu mice (8 animal per group) were injected with 1×10^7 recurrent H82 SCLC cells per mouse s.c. on the right flank, and the tumors were allowed to grow to an average of about 300 mm^3 in about 14 days. All treatment was carried out by injection intraperitoneally.

SMILES: O=P1(N(CCCl)CCCl)NCCCO1 (stereo not shown) [cyclophosphamide]
- efficacy of combined therapy on tumor growth: synergistic efficacy
